What was measured:
[1] = Highest frequency of acute liver toxicity observed during clinical trials, expressed as a percentage. [column '% AIGUE' in source]; conditions: human
[2] = human
[3] = human; remark: listed apart in the source
[4] = Times to onset, minimal and maximal, observed in the indexed observations. [column 'DELAI' in source]; conditions: human
[5] = human; remark: listed apart in the source
[6] = human, serum
[7] = human, serum; remark: listed apart in the source
[8] = human; remark: listed apart in the source
[9] = human; remark: listed apart in the source
[10] = Comments (NB not yet translated). [column 'COMMENTAIRES' in source]; conditions: human
[11] = human; remark: listed apart in the source
[12] = Highest frequency of moderate liver toxicity observed during clinical trials, expressed as a percentage. [column '% BIOL' in source]; conditions: human
[13] = human; remark: listed apart in the source
[14] = human; remark: listed apart in the source
[15] = human, serum, 4383 h
[16] = human; remark: listed apart in the source
[17] = Proposed mechanism(s) of liver damage. [column 'MEC' in source]; conditions: human
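Wherever Hepatotoxicity (association with vascular disease) is given: count of indexed literature references reporting vascular liver injury in humans, e.g. peliosis hepatitis, hepatic veno-occlusive disease or Budd-Chiari syndrome.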
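Wherever Hepatotoxicity (benign tumour) is given: value is a count of indexed literature references citing a benign tumour confirmed by histopathology.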
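Wherever Hepatotoxicity (choleostasis) is given: human cholestatic liver injury, shown by histopathology or by peak ALT or AST elevation over alkaline phosphatase ratio below 2, value counts indexed literature reports.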
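Wherever Hepatotoxicity (chronic liver disease) is given: chronic liver injury confirmed by histopathology or persistently raised serum aminotransferase activity beyond 6 months, value given as the count of indexed literature references.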
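Wherever Hepatotoxicity (cirrhosis) is given: value is a count of indexed literature references reporting cirrhosis confirmed by histopathology.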
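Wherever Hepatotoxicity (cytolytic) is given: human cytolytic liver injury, shown by histopathology or by a ratio above 5 of peak ALT or AST elevation to alkaline phosphatase elevation, value counts indexed references.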
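Wherever Hepatotoxicity (granulomatous hepatitis) is given: value is a count of indexed literature references reporting granulomatous liver disease confirmed by histopathology.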
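Wherever Hepatotoxicity (malignant tumour) is given: malignant tumour confirmed by histopathology, value gives the count of indexed literature references reporting it.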
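Wherever Hepatotoxicity (severe hepatitis) is given: human clinical data: severe hepatitis, meaning potentially life-threatening liver failure or clinically observed cases, the value counts how many indexed literature references report it.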
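Wherever Hepatotoxicity (steatosis) is given: steatosis confirmed by histopathology, value is the count of indexed references.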

Molecule	Hepatotoxicity (acute) [1] [%]	Hepatotoxicity (severe hepatitis) [2]	Hepatotoxicity (cirrhosis) [3]	Hepatotoxicity (time to onset) [4]	Hepatotoxicity (association with vascular disease) [5]	Hepatotoxicity (acute) [6]	Hepatotoxicity (moderate) [7]	Hepatotoxicity (choleostasis) [8]	Hepatotoxicity (steatosis) [9]	Hepatotoxicity (comment) [10]	Hepatotoxicity (cytolytic) [11]	Hepatotoxicity (moderate) [12] [%]	Hepatotoxicity (malignant tumour) [13]	Hepatotoxicity (granulomatous hepatitis) [14]	Hepatotoxicity (chronic liver disease) [15]	Hepatotoxicity (benign tumour) [16]	Hepatotoxicity (mechanism) [17]	other results
CC[C@H]1OC(=O)[C@H](C)[C@@H](O[C@H]2C[C@@](C)(OC)[C@@H](O)[C@H](C)O2)[C@H](C)[C@@H](O[C@@H]2O[C@H](C)C[C@H](N(C)C)[C@H]2O)[C@](C)(O)C[C@@H](C)CN(C)[C@H](C)[C@@H](O)[C@]1(C)O [AZITHROMYCIN]	0	0	0	3 days - 18 days	0	5	53	4	0	CHOLANGITE	0	40	0	0	0	0	Allergic	
Cc1c(C)c2c(c(C)c1O)CCC(C)(COc1ccc(CC3SC(=O)NC3=O)cc1)O2 (centres undefined) [TROGLITAZONE]	5	21	0	3 days - 2.3 years	0	36	18	4	2	CHOLESTASE_PROLONGEE	27	5.8	0	1	1	0	Mitochondrial toxicity	
Nc1nnc(-c2cccc(Cl)c2Cl)c(N)n1 [LAMOTRIGINE]	0	9	0	5 days - 3 months	0	17	7	1	0	DUCTOPENIE CHOLESTASE_PROLONGEE	12	7.7	0	0	0	0	Allergic	
CC(C)NCC(O)COc1cccc2ccccc12 (centres undefined) [PROPRANOLOL]	0	0	0	1 month - 9 months	0	5	5	3	0	CHOLANGIOLITE ENCEPHALOPATHIE	4	10	0	0	0	0	Allergic	
Cc1cccc(C)c1NC(=O)C(C)N (centres undefined) [TOCAINIDE]	0	0	0	1 month - 2 months	0	6	2	4	1	AC_ANTI-N/-ML	5	1.7	0	1	0	0	Allergic	
CCCc1cc(C(N)=S)ccn1 [PROTIONAMIDE]	2.5	2	0	3 months - 1 year	0	7	8	0	0	I/PILULE	4	13	0	0	0	0	Dose-dependant	
COc1ccc2cc([C@H](C)C(=O)O)ccc2c1 [NAPROXEN]			0	2 days - 2 months	0	19	13		1	RC/FENOPROFENE			0		0	0		Hepatotoxicity (acute) ([1]; Liver): 1.1%; Hepatotoxicity (severe hepatitis) ([2]; Liver): 4; Hepatotoxicity (choleostasis) ([8]; Liver): 8; Hepatotoxicity (cytolytic) ([11]; Liver): 8; Hepatotoxicity (moderate) ([12]; Liver): 9.5%; Hepatotoxicity (granulomatous hepatitis) ([14]; Liver): 1; Hepatotoxicity (mechanism) ([17]; Liver): Allergic
CC(=O)O[C@H]1C[C@@]2(C)[C@@H](C[C@@H](O)[C@H]3[C@@]4(C)CC[C@@H](O)[C@@H](C)[C@@H]4CC[C@@]32C)/C1=C(\CCC=C(C)C)C(=O)O [FUSIDIC ACID]	34	0	0	2 days - 2 months	0	19	12	2	0	HYPERBILIRUBINEMIE	0	50	0	0	0	0	Dose-dependant	
CC(S)C(=O)NCC(=O)O (centres undefined) [TIOPRONIN]	2.1	0	0	19 days - 2 years	0	10	1	8	1	CHOLESTASE_PROLONGEE #CBP	1	0	0	0	3	0	Allergic	
Cc1c(C)c2c(c(C)c1O)CC[C@@](C)(CCC[C@H](C)CCC[C@H](C)CCCC(C)C)O2 [ALPHA-TOCOPHEROL]			0	1 week - 2 months	0	3	0		0	CONCERNE_E-FEROL*			0		0	0		Hepatotoxicity (acute) ([1]; Liver): 0%; Hepatotoxicity (severe hepatitis) ([2]; Liver): 4; Hepatotoxicity (choleostasis) ([8]; Liver): 3; Hepatotoxicity (cytolytic) ([11]; Liver): 3; Hepatotoxicity (moderate) ([12]; Liver): 0%; Hepatotoxicity (granulomatous hepatitis) ([14]; Liver): 0; Hepatotoxicity (mechanism) ([17]; Liver): Dose-dependant
GOLD	0.8	5	0	1 week - 5 years	0	52	22	44	0	AC_ANTI-ADN/-ML/-N HLA-DR3 PERICHOLANGITE	7	40	0	1	1	0	Allergic, Dose-dependant	
CC(C)c1c(C(=O)Nc2ccccc2)c(-c2ccccc2)c(-c2ccc(F)cc2)n1CC[C@@H](O)C[C@@H](O)CC(=O)O [ATORVASTATIN]	1.8	1	1	6 days - 7 months	0	10	36	6	0	AC_ANTI-N/-ML	5	13.6	0	0	1	0	Allergic	

From ChEMBL document CHEMBL3137667, “[Drug-induced liver injury; fourteenth updated edition of the bibliographic database of liver injuries and related drugs]” (Gastroenterol Clin Biol, 2004)
